EC50 data for six compounds are collected here from US9486506B2 (Novo Nordisk A/S, priority 2011, dated 2016).

Numbered stars: 1 amine (or outer) side, 2 acyl side, 3 side chain; on linkers, the order of the positions; unused ones are H or OH. Side chains are listed from the residue outwards. Peptide text beside a SMILES is read from it. * marks the point of attachment. C18 diacid = O=C(O)CCCCCCCCCCCCCCCCC(=O)*; C16 diacid = O=C(O)CCCCCCCCCCCCCCC(=O)*; γGlu = O=C(O)[C@H](CCC(=O)[*:2])N[*:1]; AEEA = NCCOCCOCC(=O)O

This assay concerns the target T1, glucagon receptor (Homo sapiens, UniProt P47871).
T1 construct: expressed in transfected cells
In words: Assay (I) Glucagon activity (cAMP biosensor, FLIPR). In kind it is cell-based. As for the experimental part:
The cells (14000 per well) were incubated (37° C., 5% CO2) overnight in 384-well plates. Next day the cells were loaded with a calcium responsive dye that only distributed into the cytoplasm. Probenecid, an inhibitor of the organic anion transporter, was added to prevent the dye from leaving the cell. A PDE inhibitor was added to prevent formatted cAMP from being degraded. The plates were placed into a […] and the glucagon analogues were added. End point data were collected after 6 minutes. An increase in intracellular cAMP was proportional to an increased in calcium concentrations in the cytoplasm. When calcium was bound the dry a fluorescence signal was generated. EC50-values were calculated in Prism5.

T1 sequence (P47871 26-477): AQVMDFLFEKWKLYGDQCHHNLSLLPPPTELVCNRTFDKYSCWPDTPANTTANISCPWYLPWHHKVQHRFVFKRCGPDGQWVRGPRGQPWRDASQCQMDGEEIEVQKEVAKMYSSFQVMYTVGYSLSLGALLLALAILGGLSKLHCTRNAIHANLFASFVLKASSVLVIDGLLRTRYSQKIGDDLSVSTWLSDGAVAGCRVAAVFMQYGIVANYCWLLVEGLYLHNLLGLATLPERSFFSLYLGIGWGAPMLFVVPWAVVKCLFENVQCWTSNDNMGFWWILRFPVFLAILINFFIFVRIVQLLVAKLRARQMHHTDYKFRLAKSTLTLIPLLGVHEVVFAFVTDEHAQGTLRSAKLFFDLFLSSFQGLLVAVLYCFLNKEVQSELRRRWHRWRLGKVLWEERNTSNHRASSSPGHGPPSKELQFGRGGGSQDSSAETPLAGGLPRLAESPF

In general, EC50 refers to the concentration giving half of the maximal effect. A lower EC50 goes with higher potency in that assay. `CC(C)C[C@H](NC(=O)[C@H](Cc1c[nH]c2ccccc12)NC(=O)[C@H](CCCCNC(=O)CC[C@H](NC(=O)CC[C@H](NC(=O)COCCOCCNC(=O)COCCOCCNC(=O)CC[C@H](NC(=O)CCCCCCCCCCCCCCC(=O)O)C(=O)O)C(=O)O)C(=O)O)NC(=O)[C@@H](NC(=O)[C@H](Cc1ccccc1)NC(=O)[C@H](CC(=O)O)NC(=O)[C@H](CCC(N)=O)NC(=O)[C@H](C)NC(=O)[C@H](CCCNC(=N)N)NC(=O)[C@H](CCCNC(=N)N)NC(=O)[C@@H](NC(=O)[C@H](CC(=O)O)NC(=O)[C@H](CC(C)C)NC(=O)[C@H](Cc1ccc(O)cc1)NC(=O)[C@H](CCCNC(=N)N)NC(=O)[C@H](CO)NC(=O)[C@H](Cc1ccc(O)cc1)NC(=O)[C@H](CC(=O)O)NC(=O)[C@H](CO)NC(=O)[C@@H](NC(=O)[C@H](Cc1ccccc1)NC(=O)[C@@H](NC(=O)CNC(=O)[C@H](CCC(N)=O)NC(=O)[C@H](CO)NC(=O)[C@@H](N)Cc1c[nH]cn1)[C@@H](C)O)[C@@H](C)O)C(C)C)C(C)C)C(=O)N[C@@H](CC(C)C)C(=O)N[C@@H](CO)C(=O)N[C@H](C(=O)O)[C@@H](C)O` [Example 97, N^ε24-[(4S)-4-carboxy-4-[[(4S)-4-carboxy-4-[[2-[2-[2-[[2-[2-[2-[[(4S)-4-carboxy-4-(15-carboxypentadecanoylamino)butanoyl]amino]ethoxy]ethoxy]acetyl]amino]ethoxy]ethoxy]acetyl]amino]butanoyl]amino]butanoyl]-[Arg12,Val16,Lys24,Leu27,Ser28]-Glucagon] (H-HSQGTFTSDYSRYLDVRRAQDFVK([γGlu-γGlu-AEEA-AEEA-γGlu-C16 diacid])WLLST-OH; N-terminus and C-terminus assumed) yielded an EC50 of 0.026 nM.
The compound `CC[C@H](C)[C@H](NC(=O)[C@H](CC(C)C)NC(=O)[C@H](CC(C)C)NC(=O)[C@H](Cc1c[nH]c2ccccc12)NC(=O)[C@H](CCCCNC(=O)CC[C@H](NC(=O)CC[C@H](NC(=O)COCCOCCNC(=O)COCCOCCNC(=O)CC[C@H](NC(=O)CCCCCCCCCCCCCCCCC(=O)O)C(=O)O)C(=O)O)C(=O)O)NC(=O)[C@@H](NC(=O)[C@H](Cc1ccccc1)NC(=O)[C@H](CC(=O)O)NC(=O)[C@H](CCC(N)=O)NC(=O)[C@H](C)NC(=O)[C@H](CCCNC(=N)N)NC(=O)[C@H](CCCNC(=N)N)NC(=O)[C@H](CC(C)C)NC(=O)[C@H](CC(=O)O)NC(=O)[C@H](CC(C)C)NC(=O)[C@H](Cc1ccc(O)cc1)NC(=O)[C@H](CCCNC(=N)N)NC(=O)[C@H](CO)NC(=O)[C@H](Cc1ccc(O)cc1)NC(=O)[C@H](CC(=O)O)NC(=O)[C@H](CO)NC(=O)[C@@H](NC(=O)[C@H](Cc1ccccc1)NC(=O)[C@@H](NC(=O)CNC(=O)[C@H](CCC(N)=O)NC(=O)[C@H](CO)NC(=O)[C@@H](N)Cc1c[nH]cn1)[C@@H](C)O)[C@@H](C)O)C(C)C)C(=O)N[C@H](C(=O)O)[C@@H](C)O` [Example 18, N^ε24-[(4S)-4-carboxy-4-[[(4S)-4-carboxy-4-[[2-[2-[2-[[2-[2-[2-[[(4S)-4-carboxy-4-(17-carboxyheptadecanoylamino)butanoyl]amino]ethoxy]ethoxy]acetyl]amino]ethoxy]ethoxy]acetyl]amino]butanoyl]amino]butanoyl]-[Arg^12,Leu^16,Lys^24,Leu^27,Ile^28]-Glucagon] (H-HSQGTFTSDYSRYLDLRRAQDFVK([γGlu-γGlu-AEEA-AEEA-γGlu-C18 diacid])WLLIT-OH) returned an EC50 of 1.67 nM.
As for `CC(C)C[C@H](NC(=O)[C@H](CC(=O)O)NC(=O)[C@H](CC(C)C)NC(=O)[C@H](Cc1ccc(O)cc1)NC(=O)[C@H](CCCNC(=N)N)NC(=O)[C@H](CO)NC(=O)[C@H](Cc1ccc(O)cc1)NC(=O)[C@H](CC(=O)O)NC(=O)[C@H](CO)NC(=O)[C@@H](NC(=O)[C@H](Cc1ccccc1)NC(=O)[C@@H](NC(=O)CNC(=O)[C@H](CCC(N)=O)NC(=O)[C@H](CO)NC(=O)[C@@H](N)Cc1c[nH]cn1)[C@@H](C)O)[C@@H](C)O)C(=O)N[C@@H](CCCNC(=N)N)C(=O)N[C@@H](CCCNC(=N)N)C(=O)N[C@@H](C)C(=O)N[C@@H](CCC(N)=O)C(=O)N[C@@H](CC(=O)O)C(=O)N[C@@H](Cc1ccccc1)C(=O)N[C@H](C(=O)N[C@@H](CCCCNC(=O)CC[C@H](NC(=O)CC[C@H](NC(=O)COCCOCCNC(=O)COCCOCCNC(=O)CC[C@H](NC(=O)CCCCCCCCCCCCCCCCC(=O)O)C(=O)O)C(=O)O)C(=O)O)C(=O)N[C@@H](Cc1c[nH]c2ccccc12)C(=O)N[C@@H](CC(C)C)C(=O)N[C@@H](CC(C)C)C(=O)N[C@@H](CCC(N)=O)C(=O)N[C@H](C(=O)O)[C@@H](C)O)C(C)C` [Example 48, N^ε24-[(4S)-4-carboxy-4-[[(4S)-4-carboxy-4-[[2-[2-[2-[[2-[2-[2-[[(4S)-4-carboxy-4-(17-carboxyheptadecanoylamino)butanoyl]amino]ethoxy]ethoxy]acetyl]amino]ethoxy]ethoxy]acetyl]amino]butanoyl]amino]butanoyl]-[Arg12,Leu16,Lys24,Leu27,Gln28]-Glucagon] (H-HSQGTFTSDYSRYLDLRRAQDFVK([γGlu-γGlu-AEEA-AEEA-γGlu-C18 diacid])WLLQT-OH), the figure is 0.204 nM; as for `CC(C)C[C@H](NC(=O)[C@H](Cc1ccc(O)cc1)NC(=O)[C@H](CCCCN)NC(=O)[C@H](CO)NC(=O)[C@H](Cc1ccc(O)cc1)NC(=O)[C@H](CC(=O)O)NC(=O)[C@H](CO)NC(=O)[C@@H](NC(=O)[C@H](Cc1ccccc1)NC(=O)[C@@H](NC(=O)CNC(=O)[C@H](CCC(N)=O)NC(=O)[C@H](CO)NC(=O)[C@@H](N)Cc1c[nH]cn1)[C@@H](C)O)[C@@H](C)O)C(=O)N[C@@H](CCC(=O)O)C(=O)N[C@@H](CO)C(=O)N[C@@H](CCCNC(=N)N)C(=O)N[C@@H](CCCNC(=N)N)C(=O)N[C@@H](C)C(=O)N[C@@H](CCC(N)=O)C(=O)N[C@@H](CC(=O)O)C(=O)N[C@@H](Cc1ccccc1)C(=O)N[C@H](C(=O)N[C@@H](CCCCNC(=O)CC[C@H](NC(=O)CC[C@H](NC(=O)COCCOCCNC(=O)COCCOCCNC(=O)CC[C@H](NC(=O)CCCCCCCCCCCCCCCCC(=O)O)C(=O)O)C(=O)O)C(=O)O)C(=O)N[C@@H](Cc1c[nH]c2ccccc12)C(=O)N[C@@H](CC(C)C)C(=O)N[C@@H](CCC(=O)O)C(=O)N[C@@H](CO)C(=O)N[C@H](C(=O)O)[C@@H](C)O)C(C)C` [Example 59, N^ε24-[(4S)-4-carboxy-4-[[(4S)-4-carboxy-4-[[2-[2-[2-[[2-[2-[2-[[(4S)-4-carboxy-4-(17-carboxyheptadecanoylamino)butanoyl]amino]ethoxy]ethoxy]acetyl]amino]ethoxy]ethoxy]acetyl]amino]butanoyl]amino]butanoyl]-[Glu15,Lys24,Glu27,Ser28]-Glucagon], 0.682 nM.
As for `CC(C)C[C@H](NC(=O)[C@H](Cc1ccc(O)cc1)NC(=O)[C@H](CCCCN)NC(=O)[C@H](CO)NC(=O)[C@H](Cc1ccc(O)cc1)NC(=O)[C@H](CC(=O)O)NC(=O)[C@H](CO)NC(=O)[C@@H](NC(=O)[C@H](Cc1ccccc1)NC(=O)[C@@H](NC(=O)CNC(=O)[C@H](CCC(N)=O)NC(=O)[C@H](CO)NC(=O)[C@@H](N)Cc1c[nH]cn1)[C@@H](C)O)[C@@H](C)O)C(=O)N[C@@H](CCC(=O)O)C(=O)N[C@@H](CO)C(=O)N[C@@H](CCCNC(=N)N)C(=O)N[C@@H](CCCNC(=N)N)C(=O)N[C@@H](C)C(=O)N[C@@H](CCC(N)=O)C(=O)N[C@@H](CC(=O)O)C(=O)N[C@@H](Cc1ccccc1)C(=O)N[C@H](C(=O)N[C@@H](CCCCNC(=O)CC[C@H](NC(=O)CC[C@H](NC(=O)COCCOCCNC(=O)COCCOCCNC(=O)CC[C@H](NC(=O)CCCCCCCCCCCCCCCCC(=O)O)C(=O)O)C(=O)O)C(=O)O)C(=O)N[C@@H](Cc1c[nH]c2ccccc12)C(=O)N[C@@H](CC(C)C)C(=O)N[C@@H](CC(C)C)C(=O)N[C@@H](CCC(N)=O)C(=O)N[C@H](C(=O)O)[C@@H](C)O)C(C)C` [Example 60, N^ε24-[(4S)-4-carboxy-4-[[(4S)-4-carboxy-4-[[2-[2-[2-[[2-[2-[2-[[(4S)-4-carboxy-4-(17-carboxyheptadecanoylamino)butanoyl]amino]ethoxy]ethoxy]acetyl]amino]ethoxy]ethoxy]acetyl]amino]butanoyl]amino]butanoyl]-[Glu15,Lys24,Leu27,Gln28]-Glucagon], the figure is 0.517 nM; as for `CC(C)C[C@H](NC(=O)[C@H](Cc1ccc(O)cc1)NC(=O)[C@H](CCCNC(=N)N)NC(=O)[C@H](CO)NC(=O)[C@H](Cc1ccc(O)cc1)NC(=O)[C@H](CC(=O)O)NC(=O)[C@H](CO)NC(=O)[C@@H](NC(=O)[C@H](Cc1ccccc1)NC(=O)[C@@H](NC(=O)CNC(=O)[C@H](CCC(N)=O)NC(=O)[C@H](CO)NC(=O)[C@@H](N)Cc1c[nH]cn1)[C@@H](C)O)[C@@H](C)O)C(=O)N[C@@H](CCC(=O)O)C(=O)N[C@@H](CO)C(=O)N[C@@H](CCCNC(=N)N)C(=O)N[C@@H](CCCNC(=N)N)C(=O)N[C@@H](C)C(=O)N[C@@H](CCC(N)=O)C(=O)N[C@@H](CCC(=O)O)C(=O)N[C@@H](Cc1ccccc1)C(=O)N[C@H](C(=O)N[C@@H](CCCCNC(=O)CC[C@H](NC(=O)CC[C@H](NC(=O)COCCOCCNC(=O)COCCOCCNC(=O)CC[C@H](NC(=O)CCCCCCCCCCCCCCCCC(=O)O)C(=O)O)C(=O)O)C(=O)O)C(=O)N[C@@H](Cc1c[nH]c2ccccc12)C(=O)N[C@@H](CC(C)C)C(=O)N[C@@H](CCC(=O)O)C(=O)N[C@@H](CO)C(=O)N[C@H](C(=O)O)[C@@H](C)O)C(C)C` [Example 55, N^ε24-[(4S)-4-carboxy-4-[[(4S)-4-carboxy-4-[[2-[2-[2-[[2-[2-[2-[[(4S)-4-carboxy-4-(17-carboxyheptadecanoylamino)butanoyl]amino]ethoxy]ethoxy]acetyl]amino]ethoxy]ethoxy]acetyl]amino]butanoyl]amino]butanoyl]-[Arg12,Glu15,Glu21,Lys24,Glu27,Ser28]-Glucagon] (H-HSQGTFTSDYSRYLESRRAQEFVK([γGlu-γGlu-AEEA-AEEA-γGlu-C18 diacid])WLEST-OH), 1.09 nM.
